Experimental data reported in patent publication US9718792B2, “Isoxazoline hydroxamic acid derivatives as LpxC inhibitors” (priority 2014, dated 2017).
pIC50: −log10 of the molar value. Values after ≈ are worked out from the molar mass of the structure shown. Read-outs that look alike come from different tables or passages of the source.

Assays:
P. aeruginosa LpxC = P. aeruginosa LpxC (Pseudomonas aeruginosa (strain ATCC 15692 / DSM 22644 / CIP 104116 / JCM 14847 / LMG 12228 / 1C / PRS 101 / PAO1), UniProt P47205); assay: P. aeruginosa LpxC Inhibition Assay; format: biochemical; conditions: 1 nM P. aeruginosa LpxC, 2 μM substrate, LC-MS/MS; read-out: PA LpxC IC50
Summary of the method: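 Compounds pre-incubated 30 min at room temperature with 1 nM LpxC, then 2 μM UDP-3-O-(R-3-hydroxydecanoyl)-GlcNAc added; 20 min reaction in 50 mM sodium phosphate pH 7.5, 0.005% Triton X-100, quenched with HOAc. Product quantified by LC-MS/MS against calibration curve; IC50 from four-parameter logistic fit.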

P. aeruginosa PAO1 = assay: Susceptibility Testing (MIC, broth microdilution); format: cell-based, Pseudomonas aeruginosa; conditions: Pseudomonas aeruginosa, PAO1, 20 h, read-out: PAO1 MIC
Summary of the method: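 Broth microdilution per CLSI in cation-adjusted Mueller-Hinton broth, inoculum ~5×10^5 CFU/mL, two-fold compound dilutions (1% DMSO final). Plates incubated 20 h in ambient air at 35° C. MIC is the lowest concentration preventing visible growth, confirmed by OD 600 nm reading.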

[1] = P. aeruginosa PAO1, broth microdilution, 20 hours

C[C@@](C[C@H]1CC(c2ccc(-c3ccncc3F)c(F)c2)=NO1)(C(=O)NO)S(C)(=O)=O [Compound 117, (R)-3-((R)-3-(3-fluoro-4-(3-fluoropyridin-4-yl)phenyl)-4,5-dihydroisoxazol-5-yl)-N-hydroxy-2-methyl-2-(methylsulfonyl)propanamide]
pIC50 (P. aeruginosa LpxC): > 9.30
MIC (P. aeruginosa PAO1; [1]): 0.35 µg/mL (≈ 0.796 µM)

C[C@@](C[C@H]1CC(c2ccc(C#CC3CC3)cc2)=NO1)(C(=O)NO)S(C)(=O)=O [Compound 6-A, (R)-3-((R)-3-(4-(cyclopropylethynyl)phenyl)-4,5-dihydroisoxazol-5-yl)-N-hydroxy-2-methyl-2-(methylsulfonyl)propanamide]
pIC50 (P. aeruginosa LpxC): 9.15
MIC (P. aeruginosa PAO1; [1]): 0.25 µg/mL (≈ 0.64 µM)

CO[C@@H](CO)Cc1ccc(-c2ccc(C3=NO[C@@H](C[C@](C)(C(=O)NO)S(C)(=O)=O)C3)cc2)cc1 [Compound 86, (R)—N-hydroxy-3-((R)-3-(4′-((R)-3-hydroxy-2-methoxypropyl)-[1,1′-biphenyl]-4-yl)-4,5-dihydroisoxazol-5-yl)-2-methyl-2-(methylsulfonyl)propanamide]
pIC50 (P. aeruginosa LpxC): > 9.30
MIC (P. aeruginosa PAO1; [1]): 0.35 µg/mL (≈ 0.713 µM)

C[C@@](C[C@H]1CC(c2ccc(-c3ccnc(C(F)(F)F)c3)cc2)=NO1)(C(=O)NO)S(C)(=O)=O [Compound 70, (R)—N-hydroxy-2-methyl-2-(methylsulfonyl)-3-((R)-3-(4-(2-(trifluoromethyl)pyridin-4-yl)phenyl)-4,5-dihydroisoxazol-5-yl)]
pIC50 (P. aeruginosa LpxC): 8.70
MIC (P. aeruginosa PAO1; [1]): 8 µg/mL (≈ 17 µM)

C[C@@](C[C@H]1CC(c2ccc(-c3ccc(CN4CCOCC4)cc3)cc2)=NO1)(C(=O)NO)S(C)(=O)=O [Compound 47, (R)—N-hydroxy-2-methyl-2-(methylsulfonyl)-3-((R)-3-(4′-(morpholinomethyl)-[1,1′-biphenyl]-4-yl)-4,5-dihydroisoxazol-5-yl)]
pIC50 (P. aeruginosa LpxC): 9.22
MIC (P. aeruginosa PAO1; [1]): 0.35 µg/mL (≈ 0.698 µM)

C[S+]([O-])c1ccc(-c2ccc(C3=NO[C@@H](C[C@](C)(C(=O)NO)S(C)(=O)=O)C3)cc2)cc1 (stereo partly drawn) [Compound 74, (2R)—N-hydroxy-2-methyl-3-((5R)-3-(4′-(methylsulfinyl)-[1,1′-biphenyl]-4-yl)-4,5-dihydroisoxazol-5-yl)-2-(methylsulfonyl) propanamide]
pIC50 (P. aeruginosa LpxC): > 9.30
MIC (P. aeruginosa PAO1; [1]): 0.71 µg/mL (≈ 1.53 µM)

CC#CCOc1ccc(C2=NOC(CC(C)(C(=O)NO)S(C)(=O)=O)C2)cc1 (single isomer, unassigned) [Compound 4-B, 3-(3-(4-(but-2-yn-1-yloxy)phenyl)-4,5-dihydroisoxazol-5-yl)-N-hydroxy-2-methyl-2-(methylsulfonyl)propanamide]
pIC50 (P. aeruginosa LpxC): 7.62
MIC (P. aeruginosa PAO1): 8 µg/mL (≈ 20.3 µM)

CC(C)(O)[C@H]1C[C@@H](C#Cc2ccc(C3=NO[C@@H](C[C@](C)(C(=O)NO)S(C)(=O)=O)C3)cc2)C1 [Compound 39B, (R)—N-hydroxy-3-((R)-3-(4-(((1 s,3S)-3-(2-hydroxypropan-2-yl)cyclobutyl)ethynyl)phenyl)-4,5-dihydroisoxazol-5-yl)-2-methyl-2-(methylsulfonyl)propanamide]
pIC50 (P. aeruginosa LpxC): 8.70
MIC (P. aeruginosa PAO1; [1]): 1 µg/mL (≈ 2.16 µM)

C[C@H](O)Cc1ccc(-c2ccc(C3=NO[C@@H](C[C@](C)(C(=O)NO)S(C)(=O)=O)C3)cc2)cc1 [Compound 46, (R)—N-hydroxy-3-((R)-3-(4′-((S)-2-hydroxypropyl)-[1,1′-biphenyl]-4-yl)-4,5-dihydroisoxazol-5-yl)-2-methyl-2-(methylsulfonyl)]
pIC50 (P. aeruginosa LpxC): 9.00
MIC (P. aeruginosa PAO1; [1]): 0.125 µg/mL (≈ 0.271 µM)

CC(CC1CC(c2ccc(C#CC3CC3)c(F)c2)=NO1)(C(=O)NO)S(C)(=O)=O (single isomer, unassigned) [Compound 13-B, 3-(3-(4-(cyclopropylethynyl)-3-fluorophenyl)-4,5-dihydroisoxazol-5-yl)-N-hydroxy-2-methyl-2-(methylsulfonyl)propanamide]
pIC50 (P. aeruginosa LpxC): 9.00
MIC (P. aeruginosa PAO1; [1]): 1 µg/mL (≈ 2.45 µM)

CC(CC1CC(c2ccc(-c3ccccc3)cc2)=NO1)(C(=O)NO)S(C)(=O)=O (single isomer, unassigned) [Compound 3-B, 3-(3-([1,1′-biphenyl]-4-yl)-4,5-dihydroisoxazol-5-yl)-N-hydroxy-2-methyl-2-(methylsulfonyl)propanamide]
pIC50 (P. aeruginosa LpxC): 9.00
MIC (P. aeruginosa PAO1; [1]): 0.25 µg/mL (≈ 0.621 µM)

COc1cc(F)c(-c2ccc(C3=NO[C@@H](C[C@](C)(C(=O)NO)S(C)(=O)=O)C3)cc2)c(F)c1 [Compound 79, (R)-3-((R)-3-(2′,6′-difluoro-4′-methoxy-[1,1′-biphenyl]-4-yl)-4,5-dihydroisoxazol-5-yl)-N-hydroxy-2-methyl-2-(methylsulfonyl)propanamide]
pIC50 (P. aeruginosa LpxC): > 9.30
MIC (P. aeruginosa PAO1; [1]): 0.35 µg/mL (≈ 0.747 µM)

C[C@@H](O)Cc1ccc(-c2ccc(C3=NO[C@@H](C[C@](C)(C(=O)NO)S(C)(=O)=O)C3)cc2)c(F)c1 [Compound 89, (R)-3-((R)-3-(2′-fluoro-4′-((R)-2-hydroxypropyl)-[1,1′-biphenyl]-4-yl)-4,5-dihydroisoxazol-5-yl)-N-hydroxy-2-methyl-2-(methylsulfonyl) propanamide]
pIC50 (P. aeruginosa LpxC): > 9.30
MIC (P. aeruginosa PAO1; [1]): 0.71 µg/mL (≈ 1.48 µM)

C[C@@](C[C@H]1CC(c2ccc(-c3ccncc3F)cc2)=NO1)(C(=O)NO)S(C)(=O)=O [Compound 42, (R)-3-((R)-3-(4-(3-fluoropyridin-4-yl)phenyl)-4,5-dihydroisoxazol-5-yl)-N-hydroxy-2-methyl-2-(methylsulfonyl)propanamide]
pIC50 (P. aeruginosa LpxC): 9.30
MIC (P. aeruginosa PAO1; [1]): 0.25 µg/mL (≈ 0.593 µM)

COc1ccc(-c2ccc(C3=NO[C@@H](C[C@](C)(C(=O)NO)S(C)(=O)=O)C3)cc2)c(F)c1 [Compound 59, (R)-3-((R)-3-(2′-fluoro-4′-methoxy-[1,1′-biphenyl]-4-yl)-4,5-dihydroisoxazol-5-yl)-N-hydroxy-2-methyl-2-(methylsulfonyl)]
pIC50 (P. aeruginosa LpxC): > 9.30
MIC (P. aeruginosa PAO1; [1]): 0.35 µg/mL (≈ 0.777 µM)

CC(CC1CC(c2ccc(C#CC3CC3)cn2)=NO1)(C(=O)NO)S(C)(=O)=O (single isomer, unassigned) [Compound 15-B, 3-(3-(5-(cyclopropylethynyl)pyridin-2-yl)-4,5-dihydroisoxazol-5-yl)-N-hydroxy-2-methyl-2-(methylsulfonyl)propanamide]
pIC50 (P. aeruginosa LpxC): 8.40
MIC (P. aeruginosa PAO1; [1]): 8 µg/mL (≈ 20.4 µM)

CC(CC1CC(c2ccc(Br)cc2)=NO1)(C(=O)NO)S(C)(=O)=O (single isomer, unassigned) [Compound 1-B, 3-(3-(4-bromophenyl)-4,5-dihydroisoxazol-5-yl)-N-hydroxy-2-methyl-2-(methylsulfonyl)propanamide]
pIC50 (P. aeruginosa LpxC): > 9.30
MIC (P. aeruginosa PAO1; [1]): 1 µg/mL (≈ 2.47 µM)

C[C@@](C[C@H]1CC(c2ccc(-c3ccc(CO)cc3)c(F)c2)=NO1)(C(=O)NO)S(C)(=O)=O [Compound 103, (R)-3-((R)-3-(2-fluoro-4′-(hydroxymethyl)-[1,1′-biphenyl]-4-yl)-4,5-dihydroisoxazol-5-yl)-N-hydroxy-2-methyl-2-(methylsulfonyl)propanamide]
pIC50 (P. aeruginosa LpxC): 9.22
MIC (P. aeruginosa PAO1; [1]): 0.18 µg/mL (≈ 0.4 µM)

Cc1cc(C2=NO[C@@H](C[C@](C)(C(=O)NO)S(C)(=O)=O)C2)ccc1-c1ccc(C[C@@H](C)O)cc1 [Compound 121, (R)—N-hydroxy-3-((R)-3-(4′-((R)-2-hydroxypropyl)-2-methyl-[1,1′-biphenyl]-4-yl)-4,5-dihydroisoxazol-5-yl)-2-methyl-2-(methylsulfonyl)propanamide]
pIC50 (P. aeruginosa LpxC): > 9.30
MIC (P. aeruginosa PAO1; [1]): 0.5 µg/mL (≈ 1.05 µM)

C[C@@H](O)c1ccc(-c2ccc(C3=NO[C@@H](C[C@](C)(C(=O)NO)S(C)(=O)=O)C3)cc2)cc1 [Compound 49, (R)—N-hydroxy-3-((R)-3-(4′-((R)-1-hydroxyethyl)-[1,1′-biphenyl]-4-yl)-4,5-dihydroisoxazol-5-yl)-2-methyl-2-(methylsulfonyl)]
pIC50 (P. aeruginosa LpxC): 9.00
MIC (P. aeruginosa PAO1; [1]): 0.25 µg/mL (≈ 0.56 µM)

CC(C)(O)[C@H]1C[C@H](C#Cc2ccc(C3=NO[C@@H](C[C@](C)(C(=O)NO)S(C)(=O)=O)C3)cc2)C1 [Compound 39A, (R)—N-hydroxy-3-((R)-3-(4-(((1 r,3R)-3-(2-hydroxypropan-2-yl)cyclobutyl)ethynyl)phenyl)-4,5-dihydroisoxazol-5-yl)-2-methyl-2-(methylsulfonyl)propanamide]
pIC50 (P. aeruginosa LpxC): 9.30
MIC (P. aeruginosa PAO1; [1]): 0.5 µg/mL (≈ 1.08 µM)

CC#Cc1ccc(C2=NOC(CC(C)(C(=O)NO)S(C)(=O)=O)C2)nc1 (single isomer, unassigned) [Compound 14-B, N-hydroxy-2-methyl-2-(methylsulfonyl)-3-(3-(5-(prop-1-yn-1-yl)pyridin-2-yl)-4,5-dihydroisoxazol-5-yl)propanamide]
pIC50 (P. aeruginosa LpxC): 7.77
MIC (P. aeruginosa PAO1; [1]): 8 µg/mL (≈ 21.9 µM)

CC#Cc1ccc(C2=NOC(CC(C)(C(=O)NO)S(C)(=O)=O)C2)cc1F (single isomer, unassigned) [Compound 12-B, 3-(3-(3-fluoro-4-(prop-1-yn-1-yl)phenyl)-4,5-dihydroisoxazol-5-yl)-N-hydroxy-2-methyl-2-(methylsulfonyl)propanamide]
pIC50 (P. aeruginosa LpxC): 8.70
MIC (P. aeruginosa PAO1; [1]): 2 µg/mL (≈ 5.23 µM)

C[C@@](C[C@H]1CC(c2ccc(-c3ccc(-n4nccn4)cc3)cc2)=NO1)(C(=O)NO)S(C)(=O)=O [Compound 77, (R)-3-((R)-3-(4′-(2H-1,2,3-triazol-2-yl)-[1,1′-biphenyl]-4-yl)-4,5-dihydroisoxazol-5-yl)-N-hydroxy-2-methyl-2-(methylsulfonyl)propanamide]
pIC50 (P. aeruginosa LpxC): > 9.30
MIC (P. aeruginosa PAO1; [1]): 2 µg/mL (≈ 4.26 µM)

C[C@@](C[C@H]1CC(c2ccc(-c3cnccc3F)cc2)=NO1)(C(=O)NO)S(C)(=O)=O [Compound 83, (R)-3-((R)-3-(4-(4-fluoropyridin-3-yl)phenyl)-4,5-dihydroisoxazol-5-yl)-N-hydroxy-2-methyl-2-(methylsulfonyl)propanamide]
pIC50 (P. aeruginosa LpxC): > 9.30
MIC (P. aeruginosa PAO1; [1]): 1 µg/mL (≈ 2.37 µM)
